Values quoted from earlier work in patent US11529357B2, “Injectable carbamazepine composition essentially free of 10-bromo-carbamazepine” (H. Lundbeck A/S, priority 2019, dated 2022).

average oral bioavailability: 65-70%
Structure (SMILES): NC(=O)N1c2ccccc2C=Cc2ccccc21 [carbamazepine, 5H-dibenzo[b,f]azepine-5-carboxamide]
